Measurements: patent US20260224486A1, “DIANHYDROHEXITOL BASED IONIZABLE LIPIDS FOR NUCLEIC ACID DELIVERY” (SANOFI PASTEUR INC., priority 2023, published 2026)

Assays:
BALB/cJ mice = assay: Delivery of hEPO mRNA by intramuscular administration of LNPs; serum hEPO by ELISA; format: in vivo, Mouse; details: for hEPO 6 Hr (ng/mL) Mean: Table 3, isomannide-derived lipids
Method: In summary, lipid screening studies were conducted with female BALB/cJ mice 6-8 weeks of age. Mice were dosed with 0.1 μg in 30 μL of LNPs by a single intramuscular (IM) injection into the gastrocnemius leg muscle. Blood samples were taken 6 and 24 hours post injection and hEPO levels were measured in the blood serum of the mice using an ELISA assay according to the manufacture's protocol.
Treatment Regimen: On Day 1, animals from Groups 1-33 were dosed via intramuscular injection while under light isoflurane anesthesia according to the study design table above. Animals in Groups 1-33 were injected with EPO mRNA LNPs in the right leg only. Groups 1 and 17 animals received MC3 control.
Interim Sample Collections: Interim whole blood (^~50 μL) was collected by tail snip or saphenous vein at 6 and 24 hours post dose administration (±5%). Blood samples were collected into serum separator tubes, allowed to clot at room temperature for at least 10 minutes, centrifuged at ambient temperature at minimum 1000 g for 10 minutes and the serum was extracted. All serum samples were stored at nominally −70° C. until analysis hEPO by the Testing Facility. The results of the EPO analysis were included in the Data Submission.
Terminal Blood Collections: Whole blood was collected via cardiac puncture into serum separator tube, allowed to clot at room temperature for at least 10 minutes, centrifuged at ambient temperature at minimum 1000 g for 10 minutes and the serum was extracted. Serum samples were stored at nominally −70° C. until analyzed for hEPO by the Test Facility.
ELISA Assay: Human erythropoietin (hEPO) levels in sera samples were determined by ELISA kit (R&D systems, Cat #DEP-00) according to the manufactory instruction and the results were included in the Data Submission. The “shaker” protocol was used. The serum samples were diluted between 1:40 and 1:100.

[1] = Lipid nanoparticle size and polydispersity index by dynamic light scattering (Malvern Zetasizer); format: physicochemical; details: hEPO mRNA LNP, Process A, Cationic Lipid:DMG-PEG2000:Cholesterol:DOPE 40:1.5:28.5:30 mol %, N/P 4
Text: The lipid nanoparticles in the examples of the present invention were formulated using Process A of WO 2018/089801 (see, e.g., Example 1 and FIG. 1 of WO 2018/089801). Process A (“A”) relates to a conventional method of encapsulating mRNA by mixing mRNA with a mixture of lipids, without first pre-forming the lipids into lipid nanoparticles. In an exemplary process, an ethanolic solution of a mixture of lipids (cationic lipid, phosphatidylethanolamine, cholesterol, and polyethylene glycol-lipid) at a fixed lipid to mRNA ratio were combined with an aqueous buffered solution of target mRNA at an acidic pH under controlled conditions to yield a suspension of uniform LNPs. After ultrafiltration and diafiltration into a suitable diluent system, the resulting nanoparticle suspensions were diluted to final concentration, filtered, and stored frozen at −80° C. until use.
(§1) Lipid nanoparticle formulations of Table 1 were prepared by Process A. All of the lipid nanoparticle formulations comprised hEPO mRNA and the different lipids (Cationic Lipid: DMG-PEG2000: Cholesterol: DOPE) in mol % ratios of 40:1.5:28.5:30 (Cationic Lipid: DMG-PEG2000: Cholesterol: DOPE).
The Polydispersity Index (Pdl) of lipid nanoparticles can be determined by diluting the formulation in 10% trehalose at about 0.1 mg/ml mRNA concentration and then measuring the size on Malvern zetasizer. The lipid nanoparticle size can be obtained with Malvern Zetasizer Nano-ZS.
Dynamic light scattering (DLS) measurements were performed using a Malvern Instruments Zetasizer with a backscattering detector angle of 173° and a 4-mW, 633-nm He—Ne laser (Worcestershire, UK). The samples were analyzed by diluting in 10% Trehalose and measuring the size and Poly dispersity Index (PDI) in an optical grade polystyrene cuvette.

[2] = mRNA encapsulation efficiency of lipid nanoparticles (RiboGreen assay); format: physicochemical; details: hEPO mRNA LNP, Process A, Cationic Lipid:DMG-PEG2000:Cholesterol:DOPE 40:1.5:28.5:30 mol %, N/P 4
Text: In embodiments, the lipid nanoparticle encapsulates a nucleic acid, optionally an mRNA encoding a peptide or protein. In embodiments, the lipid nanoparticle encapsulates an mRNA encoding a peptide or protein, optionally for use in a vaccine. In embodiments, the peptide is an antigen. As used herein, the phrase “encapsulation percentage” refers to the fraction of therapeutic agent (e.g. mRNA) that is effectively encapsulated within a liposomal-based vehicle (e.g. a lipid nanoparticle) relative to the initial fraction of therapeutic agent present in the lipid phase. In embodiments, the lipid nanoparticles have an encapsulation percentage for mRNA of at least 50%. In embodiments, the lipid nanoparticles have an encapsulation percentage for mRNA of at least 55%. In embodiments, the lipid nanoparticles have an encapsulation percentage for mRNA of at least 60%. In embodiments, the lipid nanoparticles have an encapsulation percentage for mRNA of at least 65%. In embodiments, the lipid nanoparticles have an encapsulation percentage for mRNA of at least 70%. In embodiments, the lipid nanoparticles have an encapsulation percentage for mRNA of at least 75%. In embodiments, the lipid nanoparticles have an encapsulation percentage for mRNA of at least 80%. In embodiments, the lipid nanoparticles have an encapsulation percentage for mRNA of at least 85%. In embodiments, the lipid nanoparticles have an encapsulation percentage for mRNA of at least 90%. In embodiments, the lipid nanoparticles have an encapsulation percentage for mRNA of at least 95%. In embodiments, the encapsulation percentage is calculated by performing the Ribogreen assay (Invitrogen) with and without the presence of 0.1% Triton-X 100.
as §1
The RiboGreen Assay is a fluorescence-based method for the determination of mRNA concentration (Total and Free) and % encapsulation using Quant-iT™ RiboGreen® RNA reagent in mRNA containing lipid nanoparticles.
• To each of the standards (Blank, mRNA-1, mRNA-2. mRNA-3, mRNA-4, mRNA-5) and Samples (free mRNA and total mRNA), add 1.0 mL of 200-fold Ribogreen Reagent Solution and gently mix by inversion. This is a 2× Dilution. • Add 200 μL of each standard and sample in triplicate using the reverse pipetting technique in a 96-well Costar Black with Clear Background Plate. Ensure no bubbles are present in the plate before the fluorescence reading. • Read the fluorescence signal using the below instrument parameters: • Read Type: Fluorescence, Bottom Read • Excitation: 485 nm; Cut-off: 515 nm; Emission: 530 nm • Plate Type: 96-well Costar Black with Clear Background
The average fluorescence from each calibration standard is plotted against the concentration to generate a linear calibration curve using the MS Excel software. The coefficient of determination (R^2) of calibration curve must be R^2>0.99.
[formula] • Where, • Y=average fluorescence value • m: slope • x: concentration (pg/mL) • c: y-intercept • Using the linear equation, calculate the concentration of free and total mRNA concentration in the test sample by replacing the y value in the equation with the average fluorescence value of each respective sample • Once the concentration is determined, the actual concentration in the sample can be back-calculated by multiplying the concentration in the test sample with the dilution factor (DF) as follows:
[formula] [formula] • Concentration of encapsulated mRNA can be determined by subtracting the concentration of free mRNA from the total mRNA. • % Encapsulation can then be calculated by taking the ratio of encapsulated mRNA over total mRNA and multiplying the result with 100.

[3] = Table 2, isosorbide-derived lipids, mouse serum 6 hours post single IM injection of 0.1 μg hEPO mRNA LNP
[4] = mouse serum 6 hours post single IM injection of 0.1 μg hEPO mRNA LNP

Polydispersity Index (PDI) [1] | Size (nm) [1] | Encapsulation efficiency (EE) % [2] | Compound | hEPO 6 Hr (ng/ml) Mean (BALB/cJ mice; [3]) | hEPO 6 Hr (ng/ml) Mean (BALB/cJ mice; Table 4, further lipids, mouse serum 6 hours post IM injection of hEPO mRNA LNP as in example 3) | hEPO 6 Hr (ng/mL) Mean (BALB/cJ mice; [4])
0.139 | 78 nm | 96% | CCCCCCCCC(O)CN(CCCCC(=O)O[C@H]1CO[C@H]2[C@@H]1OC[C@H]2OC(=O)CCCCN(CC(O)CCCCCCCC)CC(O)CCCCCCCC)CC(O)CCCCCCCC (stereo partly shown) [Compound 21] | 31.6 ng/mL | – | –
0.1 | 75 nm | 91% | CCCCCCCCCCC(O)CN(CCCC(=O)O[C@H]1CO[C@H]2[C@@H]1OC[C@H]2OC(=O)CCCN(CC(O)CCCCCCCC)CC(O)CCCCCCCC)CC(O)CCCCCCCCCC (stereo partly shown) [Compound 22] | 34.1 ng/mL | – | –
0.13 | 81 nm | 96% | CCCCCCCCCCC(O)CN(CCCCC(=O)O[C@@H]1CO[C@H]2[C@@H]1OC[C@@H]2OC(=O)CCCN(CC(O)CCCCCCCCCC)CC(O)CCCCCCCCCC)CC(O)CCCCCCCCCC (stereo partly shown) [Compound 25] | 42.7 ng/mL | – | –
0.103 | 91 nm | 94% | CCCCCCCCCCCCC(O)CN(CCCCC(=O)O[C@H]1CO[C@H]2[C@@H]1OC[C@H]2OC(=O)CCCCN(CC(O)CCCCCCCCCCCC)CC(O)CCCCCCCCCCCC)CC(O)CCCCCCCCCCCC (stereo partly shown) [Compound 28] | 40.2 ng/mL | – | –
0.16 | 106 nm | 94% | CCCCCCCCCCCCCCCCC(O)CN(CCCC(=O)O[C@H]1CO[C@H]2[C@@H]1OC[C@H]2OC(=O)CCCN(CC(O)CCCCCCCCCCCCCCCC)CC(O)CCCCCCCCCCCCCCCC)CC(O)CCCCCCCCCCCCCCCC (stereo partly shown) [Compound 30] | 25.2 ng/mL | – | –
0.12 | 98 nm | 97% | CCCCCCCCCCCCCCCCC(O)CN(CCCCC(=O)O[C@@H]1CO[C@H]2[C@@H]1OC[C@H]2OC(=O)CCCCN(CC(O)CCCCCCCCCCCCCCCC)CC(O)CCCCCCCCCCCCCCCC)CC(O)CCCCCCCCCCCCCCCC (stereo partly shown) [Compound 31] | 14.1 ng/mL | – | –
0.11 | 109 nm | 99% | CCCCCCCCCCCOC(=O)CCCC(O)CN(CCCC(=O)O[C@H]1CO[C@H]2[C@@H]1OC[C@H]2OC(=O)CCCN(CC(O)CCCCCC(=O)OC(CCCCCCCC)CCCCCCCC)CC(O)CCCC(=O)OCCCCCCCCCCC)CC(O)CCCCCC(=O)OC(CCCCCCCC)CCCCCCCC (stereo partly shown) [Compound 33] | 17.6 ng/mL | – | –
0.1 | 84 nm | 92% | CCCCCC/C=C\COC(=O)CCCCCC(O)CN(CCCC(=O)O[C@@H]1CO[C@H]2[C@@H]1OC[C@@H]2SC(=O)CCCN(CC(O)CCCCCCCCCC)CC(O)CCCCCCCCCC)CC(O)CCCCCC(=O)OC/C=C\CCCCCC (stereo partly shown) [Compound 34] | 33.8 ng/mL | – | –
0.08 | 92 nm | 82% | CCCCCC/C=C\COC(=O)CCCCCC(O)CN(CCCC(=O)O[C@H]1CO[C@H]2[C@@H]1OC[C@H]2OC(=O)CCCN(CC(O)CCCCCC(=O)OC/C=C\CCCCCC)CC(O)CCCCCC(=O)OC/C=C\CCCCCC)CC(O)CCCCCC(=O)OC/C=C\CCCCCC (stereo partly shown) [Compound 35] | 28.5 ng/mL | – | –
0.2 | 94 nm | 88% | CCCCCCCCCCC(O)CN(CCCOC(=O)O[C@@H]1CO[C@H]2[C@@H]1OC[C@H]2OC(=O)OCCCN(CC(O)CCCCCCCCCC)CC(O)CCCCCCCCCC)CC(O)CCCCCCCCCC (stereo partly shown) [Compound 36] | – | 31.7 ng/mL | –
0.25 | 65 nm | 95% | CCCCCCCCCCCCC(O)CN(CCCOC(=O)O[C@@H]1CO[C@H]2[C@@H]1OC[C@H]2OC(=O)OCCCN(CC(O)CCCCCCCCCCCC)CC(O)CCCCCCCCCCCC)CC(O)CCCCCCCCCCCC (stereo partly shown) [Compound 37] | – | – | 27.4 ng/mL
0.12 | 69 nm | 72% | CCCCCCCCCCC(O)CN(CCCCOC(=O)O[C@@H]1CO[C@H]2[C@@H]1OC[C@H]2OC(=O)OCCCCN(CC(O)CCCCCCCCCC)CC(O)CCCCCCCCCC)CC(O)CCCCCCCCCC (stereo partly shown) [Compound 38] | – | – | 22.6 ng/mL

Compound | Polydispersity Index (PDI) [1] | Size (nm) [1] | Encapsulation efficiency (EE) % [2] | hEPO 6 Hr (ng/ml) Mean (BALB/cJ mice; [3]) | hEPO 6 Hr (ng/ml) Mean (BALB/cJ mice; Table 4, further lipids, mouse serum 6 hours post IM injection of hEPO mRNA LNP as in example 3) | hEPO 6 Hr (ng/mL) Mean (BALB/cJ mice; [4])
CCCCCCCCCCC(O)CN(CCCC(=O)O[C@H]1CO[C@H]2[C@@H]1OC[C@H]2OC(=O)CCCN(CC(O)CCCCCCCCCC)CC(O)CCCCCCCCCC)CC(O)CCCCCCCCCC (stereo partly shown) [Compound 29] | 0.13 | 126 nm | 96% | 38.4 ng/mL | – | –
